For series [1], the target named is T1, human CB1R (Homo sapiens, UniProt P21554).
T1 construct: expressed in transfected cells; host or cells: CHO cells (crude membrane fractions)
In words: CBR-mediated suppression of forskolin-stimulated cAMP synthesis, CHO cells expressing CB1R. It counts as cell-based. To be noted: 4 μM forskolin, read-out: Inhibition of cAMP synthesis IC50 CB1. As to the method:
(§1) The CHO cells expressing human CB1R or CB2R were incubated with test compounds for 15 min. After the incubation, 4 μM forskolin (Sigma) was added and the cells were incubated for 20 min. The reaction was stopped by the addition of 1N HCl and the amount of cAMP in the cell supernatant was measured using an Cyclic AMP kit (CIS bio international) according to the manufacture's protocol. The cAMP amount increased by forskolin compared to that in the absence of forskolin was defined as 100%, and the IC50 value of each test compound was determined as the concentration at which 50% of the forskolin-stimulated cAMP synthesis was inhibited.

The target in series [2] is T1, human CB1R. The experiment in a line: Human CB receptor binding inhibition ([3H]CP55940), CB1R. The following applies: membranes of CB1R-expressing CHO cells, 0.5 nM [3H]CP55940, 2 hr at 25° C.; read-out: CB receptor binding inhibition Ki CB1. As to the method:
(§2) The crude membrane fractions were then prepared from the CB1R or CB2R-expressing CHO cells. Receptor binding assay was performed by incubating the membranes with each test compound and 38,000 dpm [^3H]CP55940 (at a final concentration of 0.5 nM: PerkinElmer Life & Analytical Sciences) in the assay buffer (50 mM Tris-HCl, […], 3 mM MgCl2, pH 7.4) containing 0.5% bovine serum albumin (BSA) for 2 hr at 25° C. The incubation mixture was filtered through 1% polyethylenimine (PEI)-treated GF/C glass filter and washed with 50 mM Tris-HCl (pH 7.4) containing 0.1% BSA. The radioactivity was then counted with a liquid scintillation counter. Nonspecific binding was determined in the presence of 10 μM WIN55212-2 (a CBR agonist described in the patent U.S. Pat. No. 508,122, Sigma), and the specific binding was calculated by subtracting the nonspecific binding from the total binding. The IC50 value for each test compound was determined as the concentration at which 50 % of the specific binding was inhibited. As a consequence of these studies, the Ki values of each test compound were determined from the IC50 value and the Kd vale of [^3H]CP55940.

Series [3] addresses T2, human CB2R (Homo sapiens, UniProt P34972).
T2 construct: expressed in transfected cells; host or cells: CHO cells (crude membrane fractions)
In words: Human CB receptor binding inhibition ([3H]CP55940), CB2R. To be noted: membranes of CB2R-expressing CHO cells, 0.5 nM [3H]CP55940, 2 hr at 25° C.; read-out: CB receptor binding inhibition Ki CB2. As to the method: as §2

The test system of series [4] is formalin-induced hyperalgesia in ICR mice. The experiment in a line: Inhibitory effect against formalin-induced hyperalgesia in ICR mice. It counts as in vivo. To be noted: Mus musculus, male ICR mice, oral administration 2 h prior to formalin. As to the method:
The inhibitory effects of the compounds of the present invention against formalin-induced hyperalgesia were examined in male ICR mice (5 W). Test compounds were dissolved in sesami oil and applied orally 2 h prior to the subcutaneous formalin injection (2% 20 μL) into the right hind paw. In this experiment, observation period was set to 30 min and divided into two parts, the first 5 minutes immediately after the formalin injection (first phase) and 10 to 30 min minutes after the formalin injection (second phase). The strength for pain sensation was evaluated by the total time for licking and biting behavior. The inhibitory effect of the test compounds on such behavior was evaluated and the ED50 value was calculated.

Series [5] concerns compound 48/80-induced pruritus in ICR strain mice. The experiment in a line: Inhibitory effect on compound 48/80-induced pruritus in ICR strain mice. It counts as in vivo. To be noted: Mus musculus, po, 0.5 h; female ICR strain mice, orally administered once, scratching counted for 30 min; read-out: anti-pruritic effect ED50. The procedure:
The experiment was carried out by the method of Inagaki et al. (Eur J Pharmacol 1999;367:361-371) with some modifications. Briefly, the back of female ICR strain mice was clipped, and compound 48/80 (3 μg/50 μL/site) was injected intradermally to elicit the response. The number of scratching behavior to the injection site by hind paws, which was observed immediately after the injection, was counted for 30 min. Test compounds, dissolved in sesame oil, were orally administered once. […] the injection of compound 48/80 at pre-determine time when the maximal plasma concentration of the compound was obtained. The inhibitory effect against pruritus was evaluated by comparing the number of scratching in the compound-administered group with that in the vehicle-administered group, and then ED50 value was calculated.

Series [6] deals with T2, human CB2R. The experiment in a line: CBR-mediated suppression of forskolin-stimulated cAMP synthesis, CHO cells expressing CB2R. The format is cell-based. The following applies: 4 μM forskolin, read-out: Inhibition of cAMP synthesis IC50 CB2. As to the method:
as §1

[7] abbreviates: 10 to 30 min after formalin injection, read-out: Inhibitory effect against formalin-induced hyperalgesia (ED50) Second phase.
Setting [8] is: first 5 minutes after formalin injection, read-out: Inhibitory effect against formalin-induced hyperalgesia (ED50) First phase.

By melting point is commonly meant the temperature of the solid-liquid transition. Usually IC50 stands for the concentration that gives 50% inhibition. As a reminder, the Ki is the equilibrium dissociation constant of an inhibitor or competing ligand from its target. For orientation: ED50 means the dose that gives a 50% effect, or the effect in half of the subjects.

Read-outs that look alike come from different tables or passages of the source.

T1 sequence (P21554 whole entry): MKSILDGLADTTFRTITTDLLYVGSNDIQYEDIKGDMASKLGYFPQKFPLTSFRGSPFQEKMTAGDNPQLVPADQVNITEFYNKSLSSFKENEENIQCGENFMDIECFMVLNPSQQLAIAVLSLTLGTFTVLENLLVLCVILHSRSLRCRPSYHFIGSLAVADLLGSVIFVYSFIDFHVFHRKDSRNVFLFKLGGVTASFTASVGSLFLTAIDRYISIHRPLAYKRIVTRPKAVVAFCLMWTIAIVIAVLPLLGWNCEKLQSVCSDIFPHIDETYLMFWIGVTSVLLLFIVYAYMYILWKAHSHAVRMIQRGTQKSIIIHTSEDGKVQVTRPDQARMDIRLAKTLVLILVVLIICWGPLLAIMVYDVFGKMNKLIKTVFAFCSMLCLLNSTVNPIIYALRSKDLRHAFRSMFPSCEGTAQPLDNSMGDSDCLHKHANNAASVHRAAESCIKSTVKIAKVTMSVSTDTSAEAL
T2 sequence (P34972 whole entry): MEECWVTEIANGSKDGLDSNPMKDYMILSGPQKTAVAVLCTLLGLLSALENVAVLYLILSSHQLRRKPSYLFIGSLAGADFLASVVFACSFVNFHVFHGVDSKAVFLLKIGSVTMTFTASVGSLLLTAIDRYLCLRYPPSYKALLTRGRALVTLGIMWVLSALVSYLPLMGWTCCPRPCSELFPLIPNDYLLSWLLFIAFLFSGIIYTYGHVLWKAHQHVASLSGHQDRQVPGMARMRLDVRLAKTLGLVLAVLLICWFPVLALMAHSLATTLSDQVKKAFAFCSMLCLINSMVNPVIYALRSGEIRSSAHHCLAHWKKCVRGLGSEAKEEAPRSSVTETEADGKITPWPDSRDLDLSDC

In turn, `CSC(=O)N1CC(C(C)C)(C(C)C)CSC1=Nc1ccc(F)c2ccccc12` [Compound I-143] displayed a melting point of 109 to 110 °C. For the same compound, in series [1], the IC50 was found to be 35 nM. In addition, the Ki in series [2] was found to be 29 nM. Moreover, the Ki in series [3] was found to be 1.4 nM.

In turn, `CSC(=S)N1CC2(CCCCC2)CSC1=Nc1ccc(F)c2ccccc12` [Compound I-140] gave a melting point of 139 to 140 °C. Also, the IC50 in series [1] stood at 27 nM. For the same compound, in series [2], the Ki was found to be 59 nM. Moreover, the Ki in series [3] stood at 0.8 nM.

Regarding `CSC(=S)N1CC2(CCCCC2)CSC1=Nc1ccc(C#N)c2ccccc12` [Compound I-144], the melting point was 164 to 165 °C. Besides, the IC50 in series [1] came to 52 nM. Moreover, the Ki in series [2] amounted to 54 nM. Moreover, the Ki in series [3] stood at 1 nM.

Regarding `CSC(=S)N1CC2(CCCCC2)CSC1=Nc1cccc2ccccc12` [Compound I-23, 3-[(methylthio)thiocarbonyl]-2-(1-naphthylimino)-5,5-pentamethylene-1,3-thiazine], the melting point is 118 to 119 °C. Besides, in series [4] (setting [7]), the ED50 was found to be 1 mg/kg. The median effective dose (ED50) in series [4] (setting [8]) is 1.5 mg/kg. Further, the 50% inhibitory concentration (IC50) in series [1] stood at 10.4 nM. Besides, in series [2], the Ki was determined as 29.6 nM. Moreover, the inhibitory constant (Ki) in series [3] amounted to 6 nM. The ED50 in series [5] was determined as 0.54 mg/kg. Further, in series [6], the IC50 came to 1.7 nM.

`CSC(=O)N1CC(C(C)C)(C(C)C)CSC1=Nc1ccc(Cl)c2ccccc12` [Compound I-114] yielded a melting point of 111.5 to 112.5 °C. Moreover, the IC50 in series [1] stood at 24 nM. The inhibition constant (Ki) in series [2] stood at 25 nM. Moreover, in series [3], the Ki was found to be 5.9 nM. Moreover, the half-inhibitory concentration (IC50) in series [6] worked out at 48 nM.

On to `CSC(=S)N1CC(C(C)C)(C(C)C)CSC1=Nc1cccc2ccccc12` [Compound I-27], for which the melting point was in the range of 121 to 122 °C. In addition, in series [1], the IC50 worked out at 8.1 nM. Moreover, the inhibition constant (Ki) in series [2] was 13 nM. The Ki in series [3] is 0.3 nM.

Consider `CCCC1(CCC)CSC(=Nc2cccc3ccccc23)N(C(=O)SC)C1` [Compound I-25], for which the melting point fell in the range of 108.5 to 109.5 °C. Also, the Ki in series [2] was 42.5 nM. Besides, the inhibition constant Ki in series [3] was 1 nM.

On to `CSC(=S)N1CC(C(C)C)(C(C)C)CSC1=Nc1ccc(N(C)C)c2ccccc12` [Compound I-43, 3-[(methylthio)thiocarbonyl]-2-(4-dimethylamino-1-naphthylimino)-5,5-diisopropyl-1,3-thiazine], for which the inhibitory constant (Ki) came to 21.4 nM in series [2] and 11.3 nM in series [3].

Consider `C=CCC1(CC=C)CSC(=Nc2cccc3ccccc23)N(C(=S)SC)C1` [Compound I-28], for which the inhibition constant Ki in series [2] was 31.4 nM; in series [3] it was 4.8 nM.

The compound `CCCC1(CCC)CSC(=Nc2cccc3ccccc23)N(C(=S)SC)C1` [Compound I-22] came in with a melting point of 139 to 140.5 °C. In addition, the Ki in series [2] was determined as 20 nM. Moreover, the Ki in series [3] is 1.5 nM.

Take `CSC(=S)N1CC(C(C)C)(C(C)C)CSC1=Nc1ccc(F)c2ccccc12` [Compound I-142]: the melting point lay in the range of 118 to 119 °C. The IC50 in series [1] was determined as 14 nM. In series [2], the Ki was determined as 20 nM. For the same compound, the Ki in series [3] stood at 1.2 nM.

As to `CSC(=S)N1CC(C(C)C)(C(C)C)CSC1=Nc1cccc2cc(OCC(=O)OC(C)(C)C)ccc12` [Compound I-77], the Ki is 35 nM in series [2] and 1.5 nM in series [3].

As to `CSC(=O)N1CC(C(C)C)(C(C)C)CSC1=Nc1cccc2ccccc12` [Compound I-29], the melting point is 98 to 99 °C. The ED50 in series [4] (setting [7]) came to 3.5 mg/kg. In addition, the ED50 in series [4] (setting [8]) is 3.6 mg/kg. Besides, the IC50 in series [1] stood at 17.5 nM. Also, the Ki in series [2] stood at 6 nM. In addition, the Ki in series [3] was found to be 1.7 nM.

Compound `CSC(=S)N1CC(C(C)C)(C(C)C)CSC1=Nc1ccc(Cl)c2ccccc12` [Compound I-113] yielded a melting point of 86.5 to 87.5 °C. Moreover, the IC50 in series [1] is 13 nM. Also, the Ki in series [2] turned out to be 10 nM. Besides, in series [3], the Ki was 0.9 nM. Also, the IC50 in series [6] was 1.5 nM.

On to `CSC(=S)N1CC2(CCCCC2)CSC1=Nc1ccc(Cl)c2ccccc12` [Compound I-33], for which the melting point lay within 181 to 182 °C. Besides, the Ki in series [2] was determined as 20.7 nM. For the same compound, the Ki in series [3] was determined as 1.2 nM.

For the origin of these results see patent publication US7482339B2, “2-Naphthylimino-1,3-thiazine derivative” (Shionogi and Co., Ltd., priority 2003, dated 2009).
